Data from patent US20110151034A1, “ANTIBACTERIAL AGENT AND DISINFECTING METHOD” (Mitsubishi Chemical Corporation, priority 2008, published 2011).

Columns and labels:
[1] = tested on: Listeria monocytogenes ATCC49594; test: Antibacterial test in BHI culture medium: turbidity, inhibitory ratio and bacteria growth (Experimental Example 2); assay type: cell-based; conditions: for Number of bacteria (cfu/ml): culture 30° C. 24 hours, then BHI agar 37° C. 24 hours; for Inhibitory ratio (%): from turbidity vs dimethylsulfoxide standard; for Inhibitory ratio (%) / Turbidity of culture fluid: 30° C. for 24 hours; for Turbidity of culture fluid: 660 nm
Method: The above obtained isolated components were diluted with dimethylsulfoxide (manufactured by KANTO CHEMICAL CO., INC.) to prepare three test liquids at fraction concentrations (wt %) of 2%, 1% and 0.5%. As positive controls, erythromycin (manufactured by Wako Pure Chemical Industries Ltd.) was dissolved in ethanol (Junsei Chemical Co., Ltd.) to have a concentration of 1,000 ppm, 500 ppm or 250 ppm. As a negative control, sterilized water was used.
The antibacterial test was carried out by using Listeria monocytogenes ATCC49594 as follows.
(1) 8.9 ml of a brain heart infusion (BHI) culture medium (manufactured by NISSUI PHARMACEUTICAL CO., LTD.) was put in a test tube and treated in an autoclave (manufactured by TOMY SEIKO CO., LTD., TOMY BS-325). The culture medium concentration was adjusted to achieve a specified concentration when 0.1 ml of the above test liquid was added.
Listeria monocytogenes ATCC 49594 was cultured in the BHI culture medium by shake culture at 37° C. for 1 hour and diluted to an appropriate bacteria concentration (2.0×10^3 cfu/ml) by the BHI culture medium.
To the test tube in which 8.9 ml of the BHI culture medium prepared in the above (1) was put, 0.1 ml of the prepared test liquid and 1 ml of the bacteria liquid prepared in the above (2) were added, stirred and left at rest at 30° C. for 24 hours.
The turbidity of the culture fluid in the test tube left at rest at 30° C. for 24 hours was measured by a turbidimeter (manufactured by TAITEC CORPORATION, miniphoto 518R) at a wavelength of 660 nm. The inhibitory ratio was calculated from the following formula, where A is the turbidly in the case of a culture fluid to which 0.1 ml of dimethylsulfoxide was added instead of the test liquid.
Inhibitory ratio (%)=[(A−[turbidity of culture fluid])/A]×100
The culture fluid in the test tube left at rest at 30° C. for 24 hours was diluted with a phosphate buffer solution (PBS) and smeared on a BHI agar medium. After culturing at 37° C. for 24 hours, the number of bacteria on the agar medium was measured by observation with a microscope. With respect to the dilution with PBS, the culture fluid was preliminarily properly diluted within a range of from 10^2 to 10^9 times to such a concentration that the number of bacteria can be counted with a microscope 24 hour later (the number of bacteria 24 hours later was calibrated in accordance with the proportion preliminarily diluted with PBS).

[2] = tested on: Listeria monocytogenes JCM2873; test: Antibacterial test, colony formation on Mueller Hinton agar after culture with sample (Experimental Example 1); assay type: cell-based; conditions: 10 ppm at the time of test; 37° C. for 24 hours, then agar 37° C. for 2 days; negative control 3×10^8 cfu/ml
Method: The components (Terpenoid-1 and Terpenoid-2) isolated from the water-insoluble rosemary extract were dissolved in DMSO (dimethylsulfoxide) at a concentration of 2,000 ppm to obtain samples for antibacterial activity test. The antibacterial test was carried out as follows using Listeria monocytogenes JCM2873. 8.95 ml of Mueller Hinton Broth (MHB) culture medium was put in a test tube and sterilized in an autoclave. The culture medium concentration was adjusted to achieve a specified concentration when 50 μl of the sample was added. Listeria monocytogenes JCM2873 was cultured by shake culture at 37° C. for 1 day in the MHB culture medium, and diluted to an appropriate bacteria concentration (3.1×10^4 cfu/ml) by the MHB culture medium. To the test tube in which 8.95 ml of the MHB culture medium prepared in the above (1) was put, 50 μl of the sample and 1 ml of the bacteria liquid prepared in the above (2) were added and stirred (isolated component concentration at the time of test: 10 ppm) and left at rest at 37° C. for 24 hours. As a negative control and a positive control, sterilized water and erythromycin (solution at a concentration of 2,000 ppm in ethanol) were added instead of the sample. From the test tube left at rest at 37° C. for 24 hours, a loopful of the culture fluid was collected and smeared on a Mueller Hinton agar medium. After culturing at 37° C. for 2 days, formation of colonies on the agar medium and its degree were judged.

[3] = 50, 100, 200 ppm, same conditions as for Terpenoid-1 and Terpenoid-2
[4] = at a concentration of 50 ppm or higher

Row | SMILES | antibacterial activity against Listeria monocytogenes (in words) [1, 3] | Number of bacteria (cfu/ml) ([1]; added substance 50 ppm) | Inhibitory ratio (%) ([1]; added substance 50 ppm) | Number of bacteria (cfu/ml) ([1]; added substance 100 ppm) | Inhibitory ratio (%) ([1]; added substance 100 ppm) | Number of bacteria (cfu/ml) ([1]; added substance 200 ppm) | Inhibitory ratio (%) ([1]; added substance 200 ppm) | formation of colonies on the agar medium [2] | other results
1 | CCO[C@H]1c2cc(C(C)C)c(O)c(O)c2[C@@]23CCCC(C)(C)[C@@H]2[C@@H]1OC3=O [7α-Ethoxyrosmanol, 7α-ethoxyrosmanol] | low or no antibacterial activity | 2.5 × 10^9 cfu/ml | 4.0 | 3.6 × 10^9 cfu/ml | 0.5 | 3.8 × 10^9 cfu/ml | 2.6 | – | –
2 | COc1c(C(C)C)cc2c(c1O)C1(C(=O)O)CCCC(C)(C)C1CC2 (stereo not drawn) [12-Methoxy-tarns-carnosic acid, 12-methoxy-trans-carnosic acid] | low or no antibacterial activity | 3.1 × 10^9 cfu/ml | 11.8 | 4.1 × 10^9 cfu/ml | 17.7 | 4.3 × 10^9 cfu/ml | 20.6 | – | –
3 | C=C(C)[C@@H]1CC[C@]2(C(=O)O)CC[C@]3(C)[C@H](CC[C@@H]4[C@@]5(C)CC[C@H](O)C(C)(C)[C@@H]5CC[C@]43C)[C@@H]12 [Betulinic acid] | – | 4.0 × 10^9 cfu/ml | 0.0 | 4.5 × 10^9 cfu/ml | 0.0 | 3.0 × 10^9 cfu/ml | 0.0 | – | –
4 | CC(C)c1cc2c(c(O)c1O)[C@@]13CCCC(C)(C)[C@@H]1C[C@@H]2OC3=O [Carnosol] | low or no antibacterial activity | 4.3 × 10^9 cfu/ml | 0.0 | 4.7 × 10^9 cfu/ml | 0.0 | 3.9 × 10^9 cfu/ml | 0.0 | – | –
5 | CC(C)c1cc2c(c(O)c1O)[C@@]13CCCC(C)(C)[C@@H]1[C@H](OC3=O)[C@@H]2O [Epirosmanol] | low or no antibacterial activity | 4.0 × 10^9 cfu/ml | 0.0 | 4.2 × 10^9 cfu/ml | 0.0 | 3.2 × 10^9 cfu/ml | 0.0 | – | –
6 | CC[C@H]1OC(=O)[C@H](C)[C@@H](O[C@H]2C[C@@](C)(OC)[C@@H](O)[C@H](C)O2)[C@H](C)[C@@H](O[C@@H]2O[C@H](C)C[C@H](N(C)C)[C@H]2O)[C@](C)(O)C[C@@H](C)C(=O)[C@H](C)[C@@H](O)[C@]1(C)O [Erythromycin, erythromycin] | – | – | – | – | – | – | – | no formation of colonies | Turbidity of culture fluid ([1]; added substance 2.5 ppm): 0.011; Number of bacteria (cfu/ml) ([1]; added substance 2.5 ppm): 3.7 × 10^2 cfu/ml; Inhibitory ratio (%) ([1]; added substance 2.5 ppm): 97.8%; Turbidity of culture fluid ([1]; added substance 5 ppm): 0.022; Number of bacteria (cfu/ml) ([1]; added substance 5 ppm): 9.5 × 10^2 cfu/ml; Inhibitory ratio (%) ([1]; added substance 5 ppm): 95.6%; Turbidity of culture fluid ([1]; added substance 10 ppm): −0.008; Number of bacteria (cfu/ml) ([1]; added substance 10 ppm): 1.8 × 10^2 cfu/ml; Inhibitory ratio (%) ([1]; added substance 10 ppm): 98.4%; antibacterial property (in words) ([1]; concentration range of from 2.5 to 10 ppm): high antibacterial property
7 | CC(C)c1cc2c(c(O)c1O)[C@@]13CCCC(C)(C)[C@@H]1[C@H](OC3=O)[C@H]2O [Rosmanol] | low or no antibacterial activity | 3.9 × 10^9 cfu/ml | 10.2 | 3.7 × 10^9 cfu/ml | 5.1 | 3.9 × 10^9 cfu/ml | 16.0 | – | –
8 | CC(C)c1cc2c(cc1O)[C@@]1(C)CCCC(C)(C)[C@@H]1CC2 [Terpenoid-1, ferruginol] | – | 3.8 × 10^9 cfu/ml | 4.6 | 1.6 × 10^9 cfu/ml | 43.0 | 3.8 × 10^6 cfu/ml | 100 | no formation of colonies | Turbidity of culture fluid ([1]; added substance 50 ppm): 0.485; Turbidity of culture fluid ([1]; added substance 100 ppm): 0.290; Turbidity of culture fluid ([1]; added substance 200 ppm): −0.003; antibacterial activity against Listeria monocytogenes (in words) [1, 4]: confirmed to have antibacterial activity
9 | CC(C)c1cc2c(cc1O)[C@H]1CCCC(C)(C)[C@@H]1CC2 [Terpenoid-2] | – | 4.4 × 10^9 cfu/ml | 7.2 | 2.5 × 10^9 cfu/ml | 21.0 | 1.3 × 10^9 cfu/ml | 47.2 | no formation of colonies | Turbidity of culture fluid ([1]; added substance 50 ppm): 0.472; Turbidity of culture fluid ([1]; added substance 100 ppm): 0.402; Turbidity of culture fluid ([1]; added substance 200 ppm): 0.268; antibacterial activity against Listeria monocytogenes (in words) [1, 4]: confirmed to have antibacterial activity
